Source: US20250084062A1, “SUBSTITUTED QUINOLINE DERIVATIVE” (ASTELLAS PHARMA INC., priority 2021, published 2025)

Columns and labels:
[1] = tested on: MuSK-type myasthenia gravis animal model; test: Suppressing action on muscle weakness (grip strength) in MuSK type myasthenia gravis animal model (Test Example 3); assay type: in vivo, mouse; settings: grip strength test on 4th day, female DBA/2 mice, FIG. 2
Description: Test Example 3: Suppressing Action on Muscle Weakness in MuSK Type Myasthenia Gravis Animal Model
(§1) In a MuSK-type myasthenia gravis animal model, in which the production of autoantibodies against endogenous MuSK was induced by immunizing with human recombinant MuSK protein, decreased grip strength was evaluated as a pathological index.
(§2) A grip strength measuring device (GPM-100B; Melquest) was used to measure the grip strength of the extremities.
(§3) Repeated daily oral administration of the test compound in the MuSK-type myasthenia gravis animal model was performed as follows.
Seven point five micrograms of human MuSK recombinant protein (9810-MK; R&D systems) prepared with Freund's Complete Adjuvant (263810; Becton, Dickinson and Company) was intradermally administered to the tail of 8-week-old female DBA/2 mice (Charles River Laboratories Japan). Two weeks later, 7.5 micrograms of human MuSK recombinant protein prepared with Freund's Incomplete Adjuvant (263910; Becton, Dickinson and Company) was intradermally administered to the tail to induce myasthenia gravis mice. A week later, antibody titers against human MuSK in serum and grip strengths by the grip strength test were measured, and the mice were divided into groups of 6 mice each and subjected to administration of the test compound. The test compound was orally administered to the mice in the treatment group (3 and 10 mg/kg, suspended in 0.5% methylcellulose twice daily), and vehicle (0.5% methylcellulose) was used for the mice in the control group in place of the test compound. As a normal group, mice of the same age, same sex, and same strain were used that were not immunized with human recombinant MuSK protein. A grip strength test was performed after the administration in the morning of the 4th day.
The significance test between the normal group and the control group was performed by the Student-t test (*p<0.05). In addition, Dunnett's multiple comparison test was used between the control group and the test compound group (#p<0.05). A p-value less than 5% was regarded as significant in all the tests.

[2] = tested on: acetylcholine receptor clustering in C2Cl2 cells; test: Induction of acetylcholine receptor clustering in mouse myoblasts C2Cl2 cells (Test Example 1); assay type: cell-based; settings: Mus musculus; for Emax: Myoblast, maximum response, area of acetylcholine receptor cluster region vs 10 ng/ml Agrin (100%), 0.1 ng/ml Agrin = 0%, read-out: Max; for EC50: Myotube, C2Cl2 myotubes, with 0.1 ng/ml Agrin, concentration giving 50% of cluster area of 10 ng/ml Agrin (100%), read-out: EC50
Description: Test Example 1: Evaluation of the Induction of Acetylcholine Receptor Clustering in Mouse Myoblasts C2Cl2 Cells
Induction of acetylcholine receptor clustering by the test compound was evaluated by using fluorescently-labeled Bungarotoxin to image and quantify the acetylcholine receptor cluster region induced by the differentiation of myoblasts into myotubes, and measure the change in area. The following test method was optimized with reference to various reports including FEBS let., 586, 3111-3116 (2012). When a concentration response curve is obtained by plotting the logarithmic concentration of the test compound on the horizontal axis and the ratio of the area of acetylcholine receptor cluster region on the vertical axis, the inducing action of the test compound can be determined.
A concentration response curve as an index indicating acetylcholine receptor clustering inducing action of the test compound in mouse C2Cl2 cells was prepared. C2Cl2 cells (ATCC Number: CRL-1772) were seeded at about 5000 cells/well on a 384-well plate (354667; Corning) coated with type I collagen and allowed to incubate at 37 degrees Celsius overnight in DMEM+20% FBS+1% penicillin/streptomycin medium. The following day, the medium was removed and replaced with a differentiation medium containing DMEM+2% FBS+1% penicillin/streptomycin, and allowed to incubate at 37 degrees Celsius for 4 days. The test compound was dissolved in DMSO and added to a differentiation medium containing 0.1 ng/ml Agrin (550-AG-100; R&D systems) such that the final concentration was […] (3-fold serial dilution) or 0.00017 to 3.3 μM (3-fold serial dilution). The final concentration of DMSO was 0.3%. After the 4 days of incubation, the differentiation medium was replaced with a differentiation medium containing the test compound and 0.1 ng/ml Agrin or a differentiation medium containing 0.1 ng/ml Agrin or 10 ng/ml Agrin alone, and allowed to incubate at 37 degrees Celsius overnight. The next day, 10 μl of DMEM containing Bungarotoxin-Alexa488 (B13422; Life technologies) was added to the differentiation medium containing test compound and Agrin and Agrin alone so that the final concentration of Bungarotoxin-Alexa488 was 1 μg/ml, and was allowed to incubate at 37 degrees Celsius for 1 hour to label the acetylcholine receptor. After removing all the medium, 4% PFA was added to each well and allowed to incubate at room temperature for 10 minutes, then washed with PBS, and allowed to incubate at room temperature for 30 minutes in PBS containing 5% goat serum and 0.3% Triton X-100. After removing the PBS solution, PBS-Tween20 (28352; Thermo fisher scientific) containing Anti-Myosin Heavy Chain eFluor (registered trademark) 660 (50-6503-82; eBioscience) and DAPI (340-07971; Dojindo) was added to each well and allowed to incubate at room temperature for 1 hour to label the myotubes and nuclei. After washing three times with PBS-Tween20, the fluorescence was imaged using IN Cell Analyzer 6000 (GE Healthcare). […] The response of control group (1) was regarded as 0% and the response of the control group (2) was regarded as 100%. For quantification, the signal of only the acetylcholine receptor present in the myotube was used to eliminate non-specific fluorescence.
EC50 and Max value were used as indicators of activity in order to quantitatively evaluate the inducing action of the test compound on acetylcholine receptor clustering. EC50 value is a test compound concentration which indicates 50% in terms of the area of acetylcholine receptor cluster region compared to that of 10 ng/ml Agrin (regarded as 100%) in the concentration response curve. EC50 was calculated by nonlinear regression analysis from the concentration response curve using the area of the cluster region of the test compound as an index. Max value is the maximum response value. […]

[3] = tested on: MuSK-type myasthenia gravis animal model; test: Suppressing action on muscle weakness (grip strength) in MuSK type myasthenia gravis animal model (Test Example 2); assay type: in vivo, mouse; settings: grip strength test on 5th day, female DBA/2 mice, FIG. 1
Description: Test Example 2: Suppressing Action on Muscle Weakness in MuSK Type Myasthenia Gravis Animal Model
as §1, §2, §3
Seven point five micrograms of human MuSK recombinant protein (9810-MK; R&D systems) prepared with Freund's Complete Adjuvant (263810; Becton, Dickinson and Company) was intradermally administered to the tail of 8-week-old female DBA/2 mice (Charles River Laboratories Japan). Two weeks later, 7.5 micrograms of human MuSK recombinant protein prepared with Freund's Incomplete Adjuvant (263910; Becton, Dickinson and Company) was intradermally administered to the tail to induce myasthenia gravis mice. A week later, antibody titers against human MuSK in serum and grip strengths by the grip strength test were measured, and the mice were divided into groups of 6 mice each based on the antibody titer value and subjected to administration of the test compound. […]

[4] = tested on: acetylcholine receptor clustering; settings: NPL 16; cited from earlier work
[5] = tested on: acetylcholine receptor clustering; settings: reported in NPL 15; cited from earlier work

## Cc1c(F)c(-c2c(F)cc(S(=O)(=O)N3CCC(F)CC3)cc2F)nc2cc(C(=O)O)ccc12 [Example 18, 2-[2,6-difluoro-4-(4-fluoropiperidine-1-sulfonyl)phenyl]-3-fluoro-4-methylquinoline-7-carboxylic acid]
[1]; 3 mg/kg oral twice daily
  suppressing action on grip strength decrease: suppressing action on grip strength decrease
[1]; 10 mg/kg oral twice daily
  suppressing action on grip strength decrease: suppressing action on grip strength decrease
[2]
  Emax: 99.8%
  EC50: 3 nM

## Cc1cc(-c2c(F)cc(S(=O)(=O)N3CC[C@H](F)C3)cc2F)nc2cc(C(=O)[O-])ccc12.[Na+] [Example 2, sodium 2-{2,6-difluoro-4-[(3S)-3-fluoropyrrolidine-1-sulfonyl]phenyl}-4-methylquinoline-7-carboxylate]
[3]; 10 mg/kg oral twice daily
  suppressing action on grip strength decrease: suppressing action on grip strength decrease
[3]; 30 mg/kg oral twice daily
  suppressing action on grip strength decrease: suppressing action on grip strength decrease

## Cc1cc(-c2c(F)cc(S(=O)(=O)N3CCC(F)CC3)cc2F)nc2cc(C(=O)O)ccc12 [Example 19, 2-[2,6-difluoro-4-(4-fluoropiperidine-1-sulfonyl)phenyl]-4-methylquinoline-7-carboxylic acid]
[1]; 10 mg/kg oral twice daily
  suppressing action on grip strength decrease: suppressing action on grip strength decrease
[2]
  Emax: 108%
  EC50: 16 nM

## C=C1CC[C@H](O)C/C1=C/C=C1\CCC[C@]2(C)[C@@H]([C@H](C)CCCC(C)C)CC[C@@H]12
[4]
  inducing action on acetylcholine receptor clustering in combination with Agrin: promotes an inducing action on acetylcholine receptor clustering

## CC(C)(C)NCC(O)c1ccc(O)c(CO)c1 (centres unmarked) [salbutamol]
[5]
  inducing action on acetylcholine receptor clustering: has an inducing action on acetylcholine receptor clustering
